Measurements from patent publication US11419881B2, “Treatment of migraine” (priority 2019, dated 2022).

Experiments:
[1] = Acute and multidose (28 day) toxicity studies, nasal and intravenous; format: in vivo, rats, mice, rabbits and dogs
[2] = Preclinical pharmacokinetic studies, nasal doses; format: in vivo; settings: repeated or single escalating nasal doses up to 100 μg/rat, 400 μg/rabbit, 600 μg/dog
[3] = Preclinical pharmacokinetic studies, intravenous doses; format: in vivo, rats, rabbits, or dogs; settings: single repeated intravenous doses up to 2.5 mg/kg
[4] = tested on: nasal chemosensory mucosa; assay: Electrogram from the nasal chemosensory mucosa of human volunteers; format: in vivo
Procedure: The half effective dose of this effect was 0.087 μg.

[5] = target: T1, androgen receptors (Homo sapiens, UniProt P10275); assay: In vitro agonist/antagonist activity on androgen receptors; format: biochemical
T1 sequence (P10275 1-920): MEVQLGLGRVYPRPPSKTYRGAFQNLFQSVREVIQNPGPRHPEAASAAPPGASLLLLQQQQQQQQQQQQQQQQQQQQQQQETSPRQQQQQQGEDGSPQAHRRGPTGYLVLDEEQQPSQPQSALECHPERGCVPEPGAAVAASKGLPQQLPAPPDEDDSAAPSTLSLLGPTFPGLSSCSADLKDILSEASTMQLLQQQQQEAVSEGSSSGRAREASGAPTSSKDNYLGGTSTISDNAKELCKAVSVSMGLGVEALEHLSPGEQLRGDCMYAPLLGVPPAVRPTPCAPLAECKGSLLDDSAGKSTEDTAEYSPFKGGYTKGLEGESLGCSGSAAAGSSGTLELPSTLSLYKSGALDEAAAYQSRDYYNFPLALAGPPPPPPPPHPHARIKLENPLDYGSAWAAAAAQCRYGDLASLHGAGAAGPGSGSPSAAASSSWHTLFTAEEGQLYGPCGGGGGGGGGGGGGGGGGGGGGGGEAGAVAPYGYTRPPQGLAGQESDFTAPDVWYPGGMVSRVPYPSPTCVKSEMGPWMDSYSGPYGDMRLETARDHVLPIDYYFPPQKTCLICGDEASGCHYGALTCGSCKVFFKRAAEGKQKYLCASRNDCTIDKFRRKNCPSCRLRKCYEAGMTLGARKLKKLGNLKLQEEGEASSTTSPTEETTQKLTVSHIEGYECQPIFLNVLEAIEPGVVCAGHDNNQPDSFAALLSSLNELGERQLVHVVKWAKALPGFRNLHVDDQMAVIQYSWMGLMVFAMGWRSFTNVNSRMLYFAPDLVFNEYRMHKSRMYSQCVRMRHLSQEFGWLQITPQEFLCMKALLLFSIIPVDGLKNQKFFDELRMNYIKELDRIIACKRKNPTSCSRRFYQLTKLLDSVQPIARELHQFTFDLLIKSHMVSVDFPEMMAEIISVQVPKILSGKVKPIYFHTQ

[6] = tested on: nasal septal chemosensory mucosa; assay: Electrophysiology: depolarization of the nasal septal chemosensory mucosa; parameters: species or system human
[7] = target: T2, glucocorticoid receptors (Homo sapiens, UniProt P04150); assay: In vitro agonist/antagonist activity on glucocorticoid receptors; format: biochemical
T2 sequence (P04150 1-777): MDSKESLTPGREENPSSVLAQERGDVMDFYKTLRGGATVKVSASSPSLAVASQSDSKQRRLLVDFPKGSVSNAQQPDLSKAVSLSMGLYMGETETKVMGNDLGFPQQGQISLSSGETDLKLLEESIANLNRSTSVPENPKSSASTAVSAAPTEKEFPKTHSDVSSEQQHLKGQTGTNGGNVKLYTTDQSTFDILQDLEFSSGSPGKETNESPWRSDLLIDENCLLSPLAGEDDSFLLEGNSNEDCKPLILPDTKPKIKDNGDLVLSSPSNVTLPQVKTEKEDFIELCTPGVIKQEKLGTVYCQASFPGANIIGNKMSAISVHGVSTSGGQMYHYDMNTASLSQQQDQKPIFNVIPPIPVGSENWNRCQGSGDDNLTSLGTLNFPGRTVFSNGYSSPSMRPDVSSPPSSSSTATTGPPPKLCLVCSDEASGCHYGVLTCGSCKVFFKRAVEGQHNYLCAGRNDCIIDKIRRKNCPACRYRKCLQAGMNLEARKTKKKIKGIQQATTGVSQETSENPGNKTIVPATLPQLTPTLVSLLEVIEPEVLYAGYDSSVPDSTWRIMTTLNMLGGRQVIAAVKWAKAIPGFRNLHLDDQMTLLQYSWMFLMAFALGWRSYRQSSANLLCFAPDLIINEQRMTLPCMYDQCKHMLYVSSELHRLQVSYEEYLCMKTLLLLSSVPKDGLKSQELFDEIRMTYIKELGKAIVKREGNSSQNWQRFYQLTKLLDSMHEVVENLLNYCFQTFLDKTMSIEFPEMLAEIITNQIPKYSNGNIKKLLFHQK

C[C@]12CC[C@H]3[C@@H](CCC4=CC(=O)CC[C@@]43O)[C@@H]1C[C@H]1O[C@H]12 [16α,17α-epoxy-10β-hydroxyestr-4-en-3-one]
deaths, adverse clinical signs, effects on laboratory or pathology parameters ([1]; same nasal and intravenous doses, all species): no deaths or adverse clinical signs or effects on laboratory or pathology parameters observed
tolerability ([1]; single nasal up to 100 μg/rat, 400 μg/rabbit, 600 μg/dog, repeated nasal up to 50 μg/rat/day, 300 μg/dog/day, iv single and repeated up to 2.5 mg/kg, 28 day): well tolerated in all species tested
systemic exposure [2]: very low systemic exposure
plasma concentrations, dose dependence [3]: dose-proportional
plasma concentrations, time course [3]: decreased rapidly
half effective dose of electrogram activation ([4]; human volunteers of both sexes): 0.087 µg
activation of the electrogram recorded from the nasal chemosensory mucosa ([4]; microgram quantities, volunteers of both sexes): concentration dependent activation
agonist or antagonist activity on androgen receptors [5]: no agonist or antagonist activity
depolarization of the nasal septal chemosensory mucosa [6]: electrotonic depolarization
agonist or antagonist activity on glucocorticoid receptors [7]: no agonist or antagonist activity
